These results are taken from patent US12600729B2, “New-type benzazepine fused ring derivative” (SHANGHAI JEYOU PHARMACEUTICAL CO., LTD., priority 2021, dated 2026).

The target in data set [1] is T1, human vasopressin receptor V2R (Homo sapiens, UniProt P30518).
T1 construct: host or cells: HeLa (lentivirus infection, puromycin selection)
Put plainly: Inhibition of vasopressin-induced activation of V2R (cAMP HTRF in HeLa-V2R cells). Type of data set: cell-based. Particulars: AVP 2.25 nM, read-out: IC50, inhibition of cAMP increase in human cervical cancer cells (Human V2R Hela-Stable cell line OE2). On the procedure:
HeLa-V2R cells were incubated with DMEM medium supplemented with 10% fetal bovine serum under the condition of 37° C. and 5% CO2, and the medium was added with 2 μg/mL puromycin to continuously screen cells expressing V2R. On the day of the experiment, the cells were digested with trypsin, washed twice with the stimulation buffer in the cAMP-GS HIRANGE kit, resuspended, and counted to prepare 1.6×10^6 cells/mL, and IBMX was added until a final concentration of 0.5 mM. 5 μL of cell suspension/well was transferred to a 384-well plate. To the corresponding wells were added 2.5 μL of various concentrations of the test compounds (3-fold dilution from 10 μM, 10 concentration gradients) or DMSO (minimum value Min, maximum value Max as a control), respectively. […]. At the same time, cAMP standard samples (3-fold dilution from 5.6 μM, 10 concentration points) were prepared, and 10 μL of cAMP standard samples were transferred to corresponding wells of a 384-well plate. The cAMP-d2 fluorescence and anti-cAMP antibody probes provided in the kit were 20-fold diluted by the lysis buffer in the cAMP-GS HIRANGE kit. To each well of a 384-well plate was sequentially added 5 μL of each diluted reagent. The above mixture in each well was mixed well, centrifuged briefly, incubated at 25° C. for 2 hours, and tested. The sample was tested by the HTRF method with the Envision microplate reader to determine the fluorescence intensity at 615 nm and 665 nm. Each test sample was tested in duplicate, with 32 replicates for both Min and Max, respectively.
The fluorescence intensity ratio FI665/615 at the wavelength of 665 nm and 615 nm of the samples in each well was calculated. The logarithm of the concentration of the standard was taken as X, and FI665/615×1000 as the Y value, and the standard curve was obtained by fitting the “log(inhibitor) vs response-variable slope (four parameters)” model in Prism 8.0 software. FI665/615×1000 of the test well was taken as the Y value, and the cAMP concentration corresponding to each sample was calculated in the Prism 8.0 software according to the above standard curve.
% Inhibition (inhibition percentage) calculation formula is as follows: % inhibition=(Cmax−Ccmpd)/(Cmax−Cmin)×100
wherein Cmax is the average calculated value of cAMP concentration in all maximum wells; Cmin is the average calculated value of cAMP concentration in all minimum wells; Ccmpd is the calculated value of cAMP concentration of the test compound.
% Inhibition (inhibition percentage) was taken as the Y value, and the logarithmic value of the compound concentration was taken as the X value, and the IC50 was calculated by nonlinear regression with “log(inhibitor) vs response-variable slope (four parameters)” model in Prism 8.0 software, wherein Y=Bottom+(Top−Bottom)/(1+10^((Log IC50−X)×Hill Slope)).
On the technique in general: Time-resolved FRET reads energy transfer from a long-lived donor to a nearby acceptor.

The test system of data set [2] is LLC-PK1 cells. Nature of the data set: AVP-induced LLC-PK1 cell proliferation assay. It is filed as cell-based, Porcine. Also on record: Proliferation inhibition grading, Repeated experiment I / Proliferation inhibition grading, Repeated experiment II: key to the marks not given beside the values. The note with it: for hook effect in AVP-induced LLC-PK1 cell proliferation: high concentration, up to 3 μM. On the procedure: Porcine renal epithelial cell LLC-PK1: purchased from ATCC, Cat #CL-101 The pathogenesis of polycystic kidney disease is related to the low intracellular calcium ion concentration of renal collecting duct epithelial cells and the cAMP-dependent excessive proliferation of cells. […] LLC-PK1 cells were incubated with M199 medium supplemented with 10% fetal bovine serum under the condition of 37° C. and 5% CO2. On the first day of the experiment, a 96-well plate was coated with 0.01% Poly-D-lysine, then each well of the plate was added with 100 μL of the above mixture. After standing at room temperature for 10 minutes, the mixture in each well was aspirated and air-dried at room temperature for 1 hour, and washed once with 200 μL 1×PBS for further use. LLC-PK1 cells were digested with trypsin, resuspended with serum-free M199 after centrifugation, counted, diluted into 1×10^5/mL cell suspension with serum-free M199 medium, and added with FBS until 1% final concentration. To a 96-well plate was transfered 200 μL of cell suspension/well. After the cells were incubated for 24 hours, the supernatant of the formulated solution was aspirated, and the cells were washed once with 200 μL of PBS. Then 160 μL of M199 medium containing 0.05% FBS and 20 μL of 10×Verapamil (final concentration of 5 μM) were sequentially added thereto, and the culture was continued for 24 hours. To the corresponding wells was respectively added 10 μL of various concentrations of the test compound (final concentration starting from 3 μM, 3-fold dilution, 8 concentration gradients) or DMSO (Min, and Max as a control) on the third day. […] On the fifth day, the culture medium was carefully aspirated. The cells were washed once with 200 μL of PBS. 90 μL of M199 serum-free medium was carefully added thereto, and then 10 μL of Alamarblue reagent was added thereto. The mixture was centrifuged at 300 rpm for 1 minute, incubated at 37° C. for 2 hours, and then tested. SpectraMax instrument was used for the sample test. The excitation light was 560 nm, and the emission light was 595 nm. Each test sample was tested in triplicate, with 6 replicates for both Min and Max, respectively. The concentration of the compound was taken as the X value, and the average value of the fluorescence intensity of each experimental well sample minus the fluorescence intensity of the background well was taken as the Y value, which represented the number of living cells in the well at the time of testing. The Grouped-Summary data-Separated bar graph in GraphPad Prism 8.0 software was used to make a bar chart for reflecting the dose-effect relationship of different compounds on AVP-induced cell proliferation. […] Data quality control: […]

The target of data set [3] is T2, human V1bR (Homo sapiens, UniProt P47901).
T2 construct: purchased Perkinelmer, USA
T2 sequence (P47901 1-424): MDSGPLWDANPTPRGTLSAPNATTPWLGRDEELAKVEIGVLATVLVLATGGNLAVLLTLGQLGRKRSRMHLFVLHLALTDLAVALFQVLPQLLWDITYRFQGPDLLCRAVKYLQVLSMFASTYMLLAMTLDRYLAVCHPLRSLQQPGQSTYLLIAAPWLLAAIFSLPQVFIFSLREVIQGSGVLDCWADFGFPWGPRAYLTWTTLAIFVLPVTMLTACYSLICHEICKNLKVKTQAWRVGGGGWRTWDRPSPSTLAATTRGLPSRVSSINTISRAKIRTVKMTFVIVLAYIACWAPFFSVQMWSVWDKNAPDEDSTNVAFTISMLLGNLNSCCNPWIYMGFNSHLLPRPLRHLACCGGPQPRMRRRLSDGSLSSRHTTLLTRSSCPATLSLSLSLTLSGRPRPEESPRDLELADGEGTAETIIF
Nature of the data set: Competitive isotope ligand binding, V1b receptor. The procedure: The cells with high expression of human V1a receptor were amplified, collected, washed twice with PBS, resuspended with PBS containing a protease inhibitor, homogenized with a homogenizer at 15000 r/min to break the cells, and centrifuged at 4° C. and 3000 r/min for 15 minutes. The supernatant was collected, centrifuged at 20,000 r/min at 4° C. for 45 minutes. Then the supernatant was discarded to obtain a cell membrane precipitation. Buffer was added to resuspend to measure the protein concentration, aliquoted, and stored at −80° C. The cell membranes of highly expressed human V1b and V2 receptors were purchased from Perkinelmer, USA.
The stock solution of the test compound and that of the positive control were diluted to 1 mM (10-fold dilution) and 0.1 mM (100-fold dilution) with DMSO, respectively, and then sequentially subjected to a four-fold dilution with DMSO to the tenth point.
Cell membranes overexpressing human receptors were prepared with assay buffer to 5 mg/mL.
• 1. 1 μL of the compound was aspirated from the dilution plate into each well of the 96-well assay plate (the concentration of the test compound in the reaction would be diluted 100-fold). To the control well was added 1 μL of DMSO. • 2. 10 mL of membrane solution containing 5 μg/μL was prepared. • 3. To the compound assay plate was added the membrane solution from step 2 with a pipette, and each well was added with 89 μL of the membrane solution. • 4. […] The configured test plate was placed at 30° C. and incubated for 60 minutes. • 6. The membrane complexes were collected into 0.5% PEI pre-coated GF/B plate with Cell Harvester, washed 3 times with 2 mL of pre-cooled elution buffer at 4° C., and dried at 37° C. for 2 hours. • 7.
Y=Bottom+(Top−Bottom)/(1+10^((X−Log IC50))), wherein: Y is the reading value of the liquid scintillation counter, and X is the logarithmic value of the compound concentration.

A short description of data set [4]: In vivo pharmacokinetics in mice, oral administration. Particulars: male CD1 mice, oral 10 mg/kg. On the procedure: In this experimental example, in vivo pharmacokinetic evaluations were performed on mice by intravenous injection and oral administration.
Experimental methods and conditions: Male CD1 mice, 6 to 8 weeks old with free access to food and water, were administered by oral gavage with a dosage of 10 mg/kg (solvent 5% DMSO/10% Solutol/85% Saline). 15 minutes, 30 minutes, 1 hour, 2 hours, 4 hours, 8 hours, 10 hours, 24 hours after administration, blood samples were collected. Each sample was collected in a volume of 150 μL and anticoagulated with heparin sodium, placed on ice after collection, and centrifuged within 1 hour to separate the test plasma. The plasma concentration in plasma was tested by liquid chromatography-tandem mass spectrometry (LC/MS/MS), and pharmacokinetic parameters were calculated using Phoenix WinNonlin software via the measured concentration.

The mark [5] stands for this setting: LLC-PK1, AVP 10 nM, verapamil 5 μM, graded against Tolvaptan.

Each structure is given as a SMILES string. Read-outs that look alike come from different tables or passages of the source. A value given as a limit tells only on which side of the number the result lay.

T1 sequence (P30518 whole entry): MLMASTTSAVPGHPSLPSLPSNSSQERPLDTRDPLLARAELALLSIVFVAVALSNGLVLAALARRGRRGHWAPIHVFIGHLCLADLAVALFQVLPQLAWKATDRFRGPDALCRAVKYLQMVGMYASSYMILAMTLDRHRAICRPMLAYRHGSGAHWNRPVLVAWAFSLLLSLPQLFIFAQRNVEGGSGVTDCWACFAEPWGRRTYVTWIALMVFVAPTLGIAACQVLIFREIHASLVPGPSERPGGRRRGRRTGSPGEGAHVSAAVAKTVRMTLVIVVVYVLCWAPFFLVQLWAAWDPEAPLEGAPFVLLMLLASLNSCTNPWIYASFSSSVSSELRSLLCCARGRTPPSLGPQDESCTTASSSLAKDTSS

In general, IC50 refers to the midpoint of a concentration-inhibition curve. On to `Cc1ccccc1C(=O)Nc1ccc(C(=O)N2CCC3CCOC3c3cc(Cl)ccc32)c(C)c1` (single isomer, unassigned) [Compound 4], for which, in data set [1], the IC50 was 7.45 nM.
On the same count and under the same terms, the result for `Cc1ccccc1C(=O)Nc1ccc(C(=O)N2CCC3CCOC3c3cc(Cl)ccc32)c(C)c1` (single isomer, unassigned) [Compound 5] reads 61.6 nM.
`Cc1ccccc1C(=O)Nc1ccc(C(=O)N2CCC3CCNC3c3cc(Cl)ccc32)c(C)c1` (stereo not drawn) [Compound 1]: the “dose-response compared with Tolvaptan” value in data set [2] (AVP-induced LLC-PK1 cell proliferation) was “superior to that of Tolvaptan”. Besides, the “hook effect in AVP-induced LLC-PK1 cell proliferation” value in data set [2] is “no hook effect”. Also, in data set [1], the IC50 was 14.7 nM.
For `O=C(Nc1ccc(C(=O)N2CCC3CCNC3c3cc(Cl)ccc32)cn1)c1ccccc1C(F)(F)F` (stereo not drawn) [Compound 2], the IC50 in data set [1] is 32.6 nM.
Same read-out and setting: the figure for `CN1CCC2CCN(C(=O)c3ccc(NC(=O)c4ccccc4C(F)(F)F)nc3)c3ccc(Cl)cc3[C@H]21` (stereo partly drawn) [Compound 3A] is 84.7 nM; for `Cc1ccccc1C(=O)Nc1ccc(C(=O)N2CCC3COC3c3cc(Cl)ccc32)c(C)c1` (stereo not drawn) [Compound 6] it is 3.85 nM; for `Cc1cc(NC(=O)c2ccccc2Cl)ccc1C(=O)N1CCC2CNC2c2cc(Cl)ccc21` (stereo not drawn) [Compound 7] it is 92.7 nM.
Still for that read-out and setting: the figure for `O=C(Nc1ccc(C(=O)N2CCC3CCNC3c3cc(Cl)ccc32)cn1)c1ccccc1C(F)(F)F` (stereo not drawn) [Compound 8] is 69.5 nM.
One may read the AUC(0-inf) as the area under the concentration-time curve extrapolated to infinity. As a reminder, the Cmax is the highest concentration seen after dosing. Usually half-life stands for the time needed for the level to fall by half in the phase considered. Take `Cc1ccccc1C(=O)Nc1ccc(C(=O)N2CCCC(O)c3cc(Cl)ccc32)c(C)c1` (stereo not drawn) [Reference substance 1, Tolvaptan, reference compound]: in data set [2] (setting [5]), the “Proliferation inhibition grading, Repeated experiment I” value is given as “++” and the “Proliferation inhibition grading, Repeated experiment II” value is given as “++”. Also, in data set [2], the “hook effect in AVP-induced LLC-PK1 cell proliferation” value is on record as “high-concentration pro-proliferative hook effect”. In data set [3], this compound returned an IC50 above 10000 nM. Also, in data set [3] (read-out: Binding affinity V1bR, N = 1, isotope-labeled vasopressin […], experiment 1, bound printed in μM), the Ki is above 10 µM. The Ki in data set [3] (read-out: Binding affinity V1bR, N = 2, isotope-labeled vasopressin […], experiment 2, bound printed in μM) was above 10 µM. Also, the Ki in data set [3] (read-out: Binding affinity V1bR, summary of the two experiments) is above 10 µM. The same compound gave a F in data set [4] of 44%. In data set [4] (mouse, plasma), this compound gave an AUC(0-inf) of 1610 ng·h/mL, a Cmax of 1310 ng/mL and a half-life of 1.58 h.
